{
  "source": "paper PMC10178848",
  "about": "“Modulating fast skeletal muscle contraction protects skeletal muscle in animal models of Duchenne muscular dystrophy” (The Journal of Clinical Investigation, 2023)",
  "key": {"[1]": {"system": "EDL muscles from mdx mice", "experiment": "Ex vivo eccentric (lengthening) contraction injury, mdx EDL", "design": "species or system mouse", "protocol": "Isometric force was measured ex vivo in mouse EDL and soleus muscle. EDL muscle eccentric injury was based on published protocols ([30]), with degree of lengthening and stimulation modified to yield a uniform drop in mdx isometric and peak force over 10 contractions. After isolation, muscle was mounted via 5-0 suture to a combination servomotor/force transducer (300C-LR, Aurora) between 2 electrodes connected to a stimulator (701C, Aurora) in Ringers solution at 27°C with continuously infused CO2/O2 gas mixture. Experiments were recorded with custom MATLAB software via a National Instruments PCIe-6321 board and 2090A BNC connector. Muscles were preincubated for 60 minutes with DMSO (final 0.1%)/compound before 10 eccentric contractions, 1 minute apart, with 100 milliseconds of isometric stimulation at 100 Hz and active lengthening of 0.1 L0 at a rate of 2 L0/s. After lengthening, muscles were held at 1.1 L0 with stimulation for 100 milliseconds (Supplemental Figure 2A)."}, "[2]": {"biological_target": "T1, AXL (Homo sapiens, UniProt P30530)", "T1 construct": "purchased Eurofins DiscoverX (KINOMEscan; SAFETYscan E/IC50 ELECT)", "T1 sequence (P30530 26-894)": "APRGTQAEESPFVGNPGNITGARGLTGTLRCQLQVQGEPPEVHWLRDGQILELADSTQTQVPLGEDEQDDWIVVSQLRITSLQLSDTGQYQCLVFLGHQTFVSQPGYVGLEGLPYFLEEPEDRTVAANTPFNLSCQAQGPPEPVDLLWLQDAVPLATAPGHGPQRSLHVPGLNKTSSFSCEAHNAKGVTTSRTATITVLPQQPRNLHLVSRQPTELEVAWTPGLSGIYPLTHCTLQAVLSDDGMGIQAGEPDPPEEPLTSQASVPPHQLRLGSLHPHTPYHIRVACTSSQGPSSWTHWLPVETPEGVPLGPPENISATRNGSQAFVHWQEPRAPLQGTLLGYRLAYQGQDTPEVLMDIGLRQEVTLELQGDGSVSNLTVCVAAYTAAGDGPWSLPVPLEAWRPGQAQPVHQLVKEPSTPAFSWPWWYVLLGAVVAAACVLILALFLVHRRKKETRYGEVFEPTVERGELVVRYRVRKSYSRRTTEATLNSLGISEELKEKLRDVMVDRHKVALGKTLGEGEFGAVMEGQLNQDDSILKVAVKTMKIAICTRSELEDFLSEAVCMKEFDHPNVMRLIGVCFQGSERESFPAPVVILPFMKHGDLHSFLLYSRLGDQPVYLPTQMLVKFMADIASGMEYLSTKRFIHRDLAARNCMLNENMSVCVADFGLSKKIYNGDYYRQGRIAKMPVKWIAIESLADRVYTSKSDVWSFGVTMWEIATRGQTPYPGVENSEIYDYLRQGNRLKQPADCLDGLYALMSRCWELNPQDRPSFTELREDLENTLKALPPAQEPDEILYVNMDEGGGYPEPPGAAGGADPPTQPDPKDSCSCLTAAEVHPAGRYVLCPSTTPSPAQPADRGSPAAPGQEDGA", "experiment": "KINOMEscan scanEDGE", "format": "binding", "details": "20 uM"}, "[3]": {"biological_target": "T2, JNK1 (Homo sapiens, UniProt P45983)", "T2 construct": "purchased Eurofins DiscoverX (KINOMEscan; SAFETYscan E/IC50 ELECT)", "T2 sequence (P45983 whole entry)": "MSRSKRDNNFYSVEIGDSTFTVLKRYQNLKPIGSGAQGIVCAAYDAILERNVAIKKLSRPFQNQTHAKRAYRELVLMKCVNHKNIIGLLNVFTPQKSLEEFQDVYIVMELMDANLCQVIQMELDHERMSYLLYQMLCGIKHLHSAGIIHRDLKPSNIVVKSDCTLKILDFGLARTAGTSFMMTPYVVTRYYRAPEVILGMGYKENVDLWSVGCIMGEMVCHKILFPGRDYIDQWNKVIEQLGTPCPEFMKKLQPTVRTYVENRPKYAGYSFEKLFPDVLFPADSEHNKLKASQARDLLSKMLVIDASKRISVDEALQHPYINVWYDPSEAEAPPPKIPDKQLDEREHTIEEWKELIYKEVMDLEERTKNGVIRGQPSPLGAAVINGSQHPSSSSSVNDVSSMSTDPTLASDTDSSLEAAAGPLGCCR", "experiment": "KINOMEscan scanEDGE", "format": "binding", "details": "20 uM"}, "[4]": {"biological_target": "T3, PDPK1 (Homo sapiens, UniProt O15530)", "T3 construct": "purchased Eurofins DiscoverX (KINOMEscan; SAFETYscan E/IC50 ELECT)", "T3 sequence (O15530 whole entry)": "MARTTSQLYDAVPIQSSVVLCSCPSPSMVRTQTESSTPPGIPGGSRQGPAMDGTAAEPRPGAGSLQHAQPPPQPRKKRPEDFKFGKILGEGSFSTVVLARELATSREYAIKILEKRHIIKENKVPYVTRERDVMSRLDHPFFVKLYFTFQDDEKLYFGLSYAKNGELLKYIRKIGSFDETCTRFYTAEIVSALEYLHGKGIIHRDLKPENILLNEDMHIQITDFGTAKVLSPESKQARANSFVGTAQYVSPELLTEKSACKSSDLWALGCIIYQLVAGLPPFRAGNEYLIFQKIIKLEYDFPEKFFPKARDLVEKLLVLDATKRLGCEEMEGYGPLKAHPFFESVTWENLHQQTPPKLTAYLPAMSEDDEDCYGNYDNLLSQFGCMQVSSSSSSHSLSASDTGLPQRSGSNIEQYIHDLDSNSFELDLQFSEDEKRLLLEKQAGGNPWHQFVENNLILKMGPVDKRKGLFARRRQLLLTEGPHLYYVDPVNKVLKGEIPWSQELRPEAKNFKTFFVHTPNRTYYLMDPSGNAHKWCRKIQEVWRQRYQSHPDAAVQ", "experiment": "KINOMEscan scanEDGE", "format": "binding", "details": "20 uM"}, "[5]": {"system": "fast rabbit psoas muscle fibers", "experiment": "Skinned fiber force, rabbit psoas", "details": "Oryctolagus cuniculus, maximal force at pCa 4.5, read-out: IC50, force in single skinned fibers", "protocol": "Measurement of isometric force in skinned fibers from rabbit psoas, rat soleus, and rat cardiac trabeculae were performed as described previously ([65]) with an 802D fiber system (Aurora Scientific). Muscle bundles were thawed from –80°C and placed in relaxing solution. Single fibers were transferred to the testing apparatus with steel pins connected to a force transducer and motor (model 403A and 322C, Aurora Scientific), and collodion glue was applied. Temperature was set to 15°C for skeletal fibers and 30°C for rat cardiac trabeculae. The wells of the 802D were filled with different ratios of relaxing and activating pCa solutions as detailed previously ([65]). All control solutions contained 1% final DMSO. Traces were compared between control and compound runs to evaluate isometric force and calcium sensitivity."}},
  "data": [
    {"compound": "O=c1ccc(-c2cnc(OCC(F)(F)F)nc2)nn1Cc1cncc(F)c1", "note": "[EDG-5506]", "values": [
      {"measurement": "inhibition at 1 µM", "setting": "[1]; Mus musculus, at ≤1 μM (near maximal protection), read-out: inhibition of isometric force", "result": "~15", "unit": "%"},
      {"measurement": "strength drop with repeated lengthening contractions", "setting": "[1]; mdx EDL ex vivo", "result": "dramatically lowered"},
      {"measurement": "concentration giving near maximal protection from strength drop", "setting": "[1]; mdx EDL, 10 lengthening contractions, 1-hour preincubation", "result": "≤ 1", "unit": "µM"},
      {"measurement": "binding, % of control", "setting": "[2]", "result": "92 % of control"},
      {"measurement": "binding, % of control", "setting": "[3]", "result": "72 % of control"},
      {"measurement": "binding, % of control", "setting": "[4]", "result": "95 % of control"},
      {"measurement": "IC50", "setting": "[5]", "result": 0.7, "unit": "µM"}
    ]}
  ]
}
